These results are taken from ChEMBL document CHEMBL1667729, “Malyngamide 2, an oxidized lipopeptide with nitric oxide inhibiting activity from a Papua New Guinea marine cyanobacterium” (J Nat Prod, 2011).

Assay [1] concerns RAW264.7. Nature of the assay: Anti-inflammatory activity against mouse RAW264.7 cells assessed as inhibition of LPS-induced NO production after 24 hrs. The following applies: RAW264.7, 24 h. The class given is functional, cell-based.
In assay [2] the test system is RAW264.7. As to the kind of experiment: Cytotoxicity against mouse RAW264.7 cells at 21 uM. It counts as functional. The following applies: read-out: Survival.
The test system of assay [3] is NCI-H460. Nature of the assay: Cytotoxicity against human H460 cells. It counts as functional, cell-based.
Assay [4] deals with Neuro2a. As to the kind of experiment: Inhibition of voltage-gated sodium channel in mouse Neuro2a cells at 17.5 uM.

Calls of active or inactive are those of the source. The rule behind the calls is not given here. Numbered stars: 1 amine (or outer) side, 2 acyl side, 3 side chain; on linkers, the order of the positions; unused ones are H or OH. Square brackets hold non-standard residues; d marks the D form. Peptide text beside a SMILES is read from it. PheOxz = O=C(c1coc([C@H](Cc2ccccc2)N[*:1])n1)[*:2]; X2 = CC[C@H](C)[C@H](N[*:1])c1nc(C(=O)[*:2])co1; X1 = Cc1oc([C@@H](N[*:1])C(C)C)nc1C(=O)[*:2]

The IC50 is the point on the concentration scale where inhibition reaches its midpoint. On to `CCCCCCC[C@@H](C/C=C/CCC(=O)NC/C(=C/Cl)[C@@H]1C(=O)[C@H](O)C[C@@H](O)[C@]1(C)O)OC` [MALYNGAMIDE], for which the IC50 in assay [1] worked out at 8 µM; in assay [3], 27.3 µM. Further, the viability at 21 µM in assay [2] is 94%.
With `CC[C@H](C)[C@@H]1NC(=O)[C@@H]2CCCN2C(=O)[C@H](Cc2ccccc2)NC(=O)c2coc(n2)[C@H](Cc2ccccc2)NC(=O)c2nc(oc2C)[C@H](C(C)C)NC(=O)CNC(=O)[C@@H]2CCCN2C(=O)[C@@H]2CCCN2C(=O)[C@H](C)NC(=O)c2coc1n2` [WEWAKAZOLE] (cyclo(APPG[X1][PheOxz]FP[X2])), in assay [3], the IC50 was 10.1 µM. In addition, the inhibition entry in assay [4] is “inactive”.
